For test [1], the system named is tetrabenazine-induced depression in mice. As to the kind of experiment: Antidepressant activity (inhibition of tetrabenazine induced ptosis / tetrabenazine-induced depression). The settings on record: for ED50: Mus musculus. It is filed as in vivo. The method, then: (§1) The antidepressant and analgesic activities of various spiro compounds having the formula [drawing 32] where X is hydrogen, chlorine or bromine and m is 1 or 2, taken as representative of a lower class of compounds having the formula I are presented in Table 1. The data presented therein were determined in accordance with the above described procedures.
1. Antidepressant activity (as measured by inhibition of
tetrabenazine induced ptosis).
3. Anti-depressant activity (as measured by inhibition
tetrabenazine induced ptosis)

The test system of test [2] is phenylquinone writhing in mice. In words: Analgesic activity (phenylquinone writhing test). It is filed as in vivo, male, CD-1 mice. To be noted: for ED50: Mus musculus, sc, Table 1 part 2, estimated by computer linear regression analysis; for % Inhibition (analgesic activities, phenylquinone writhing test): 20 mg/kg, subcutaneously (sc), Table 1 part 4. The method, then: This produces a characteristic "writhe" which is defined as an inward rotation of one or more feet with twisting and turning of the trunk, drawing in of the abdominal wall, lordosis and arching of the back.
A total of 28 male, CD-1 mice (18 to 30 grams) are employed for a time response. Animals receive food and water ad libitum. Drugs to be tested are prepared with distilled water, and if insoluble, one drop of a suitable surfactant is added.
Twenty animals (5/group) are administered the drug subcutaneously (sc) 15, 30, 45 and 60 minutes prior to phenylquinone injection. Control animals (2/group) receive an equal amount of vehicle. After the administration of phenylquinone, the mice are placed separately into one-liter beakers and 5 minutes are allowed to elapse. The mice are then observed for a period of 10 minutes and the number of writhes are recorded for each animal. The formula for computing percent inhibition is: [formula]
The time period with the greatest percent of inhibition is considered the peak time.
A dose range is run in the same fashion as a time response except ten animals per group are tested at the peak time of drug activity. Fifty animals, four drug groups, and a vehicle control are employed. Animals are dosed and tested in a randomized manner. An estimated ED50 is calculated by a computer linear regression analysis.
as §1
2. Analgesic activities (as measured in the
phenylquinone writhing test).

Setting [3] is: po, Table 1 part 1, read-out: ED50 (antidepressant activity, inhibition of tetrabenazine induced ptosis).

Structures can show the parent of a compound that is named as a salt. Where two headings read alike, the source gives them in different places.

Consider `CN(C)C[C@@H]1CCCC[C@]12Cc1c(Cl)cccc1O2` (relative stereo) [4-chloro Me trans 1, (1'α2'β)-2'-Dimethylaminomethylspiro[4-chlorobenzofuran-2(3H),1'-cyclohexane]Hydrochloride], for which the ED50 (in general, the dose at which the effect has come halfway, by size or by number of responders) in test [1] (setting [3]) turned out to be 5.7 mg/kg.

For `CN(C)C[C@@H]1CCCC[C@@]12Cc1cc(Cl)c(Cl)cc1O2` (relative stereo) [5,6-dichloro Me cis 1, (1'β,2'β)-2'-Dimethylaminomethylspiro[5,6-dichlorobenzofuran-2(3H),1'-cyclohexane]Hydrochloride], in test [1] (setting [3]), the median effective dose (ED50) was found to be 3.46 mg/kg.

Turning to `CN(C)C[C@@H]1CCCC[C@@]12Cc1cc(Br)ccc1O2` (relative stereo) [5-bromo Me cis 1, (1'β,2'β)-2'-Dimethylaminomethylspiro[5-bromobenzofuran-2(3H),1'-cyclohexane]Hydrochloride], the 50% effective dose (ED50) in test [1] (setting [3]) came to 4.73 mg/kg.

On to `CCN(CC)C[C@@H]1CCCC[C@@]12Cc1cc(Cl)ccc1O2` (relative stereo) [5-chloro Et cis 1, (1'β,2'β)-2'-Diethylaminomethylspiro[5-chlorobenzofuran-2(3H),1'-cyclohexane]Hydrochloride], for which the ED50 in test [1] (setting [3]) is 4.73 mg/kg.

Consider `CN(C)C[C@@H]1CCCC[C@@]12Cc1cc(Cl)ccc1O2` (relative stereo) [5-chloro Me cis 1, (1'β,2'β)-2'-Dimethylaminomethylspiro[5-chlorobenzofuran-2(3H),1'-cyclohexane]Hydrochloride], for which the values for the ED50 in test [1] (setting [3]) and in test [2] were 1.5 mg/kg and 4.96 mg/kg, respectively.

Take `CN(C)C[C@@H]1CCCC[C@]12Cc1cc(Cl)ccc1O2` (relative stereo) [5-chloro Me trans 1, (1'α,2'β)-2'-Dimethylaminomethylspiro[5-chlorobenzofuran-2(3H),1'-cyclohexane]Hydrochloride]: in test [1] (setting [3]), the ED50 worked out at 1.39 mg/kg.

For the molecule `CN(C)C[C@@H]1CCCC[C@]12Cc1ccc(Cl)cc1O2` (relative stereo) [6-chloro Me trans 1, (1'α,1'β)-2'-Dimethylaminomethylspiro[6-chlorobenzofuran-2(3H),1'-cyclohexane]Hydrochloride], the ED50 in test [1] (setting [3]) stood at 0.42 mg/kg.

For the molecule `CN(C)C[C@@H]1CCC[C@@]12Cc1cc(Br)ccc1O2` (relative stereo) [(1'β,2'β)-2'-dimethylaminomethylspiro[5-bromobenzofuran-2(3H),1'-cyclopentane]hydrochloride], the median effective dose (ED50) in test [1] ((po) [orally], Table 1 part 3, read-out: 50% Inhibition (ED50), anti-depressant activity, inhibition of tetrabenazine induced ptosis) stood at 17.3 mg/kg. Besides, the “% Inhibition (analgesic activities, phenylquinone writhing test)” value in test [2] is listed as 53%.

For the molecule `CN(C)C[C@@H]1CCC[C@@]12Cc1cc(Cl)ccc1O2` (relative stereo) [(1'β,2'β)-2'-dimethylaminomethylspiro[5-chlorobenzofuran-2(3H),1'-cyclopentane]hydrochloride], the “% Inhibition (analgesic activities, phenylquinone writhing test)” value in test [2] was determined as 40%.

Regarding `CN(C)C[C@@H]1CCC[C@@]12Cc1ccccc1O2` (relative stereo) [(1'β,2'β)-2'-dimethylaminomethylspiro[benzofuran-2(3H),1'-cyclopentane]hydrochloride], the “% Inhibition (anti-depressant activity, inhibition of tetrabenazine induced ptosis)” value in test [1] (20 mg/kg intraperitoneal, Table 1 part 3) turned out to be 53%. Moreover, in test [2], the “% Inhibition (analgesic activities, phenylquinone writhing test)” value was 37%.

Turning to `CN(C)C[C@@H]1CCCC[C@@]12Cc1ccccc1O2` (relative stereo) [H Me cis 1, (1'β,2'β)-2'-Dimethylaminomethylspiro[benzofuran-2(3H),1'-cyclohexane]Hydrochloride], the ED50 in test [2] was 5.98 mg/kg.

As for `CN(C)C[C@@H]1CCCC[C@]12Cc1ccccc1O2` (relative stereo) [H Me trans 1, (1'β,2'β)-2'-Dimethylaminomethylspiro[benzofuran-2(3H),1'-cyclohexane]Hydrochloride], the ED50 was 3 mg/kg in test [1] (setting [3]) and 2.9 mg/kg in test [2].

The record behind these values is patent US4517311A, “2'-Substituted-spiro[benzofuran-2(3H),1'-cycloalkanes] and their analgesic and anti-depressant compositions” (Hoechst-Roussel Pharmaceuticals Inc., priority 1982, dated 1985).
